Test results as given in ChEMBL document CHEMBL4330159, “Isoquinoline Alkaloids from Berberis vulgaris as Potential Lead Compounds for the Treatment of Alzheimer's Disease” (J Nat Prod, 2019).

Legend:
[1] = biological target: T1, Prolyl endopeptidase (Homo sapiens, UniProt P48147); assay: Inhibition of POP (unknown origin) using (Z)-Gly-Pro-p-nitroanilide as substrate preincubated for 5 mins followed by substrate addition and measured after 30 mins by spectrophotometric method
T1 sequence (P48147 whole entry): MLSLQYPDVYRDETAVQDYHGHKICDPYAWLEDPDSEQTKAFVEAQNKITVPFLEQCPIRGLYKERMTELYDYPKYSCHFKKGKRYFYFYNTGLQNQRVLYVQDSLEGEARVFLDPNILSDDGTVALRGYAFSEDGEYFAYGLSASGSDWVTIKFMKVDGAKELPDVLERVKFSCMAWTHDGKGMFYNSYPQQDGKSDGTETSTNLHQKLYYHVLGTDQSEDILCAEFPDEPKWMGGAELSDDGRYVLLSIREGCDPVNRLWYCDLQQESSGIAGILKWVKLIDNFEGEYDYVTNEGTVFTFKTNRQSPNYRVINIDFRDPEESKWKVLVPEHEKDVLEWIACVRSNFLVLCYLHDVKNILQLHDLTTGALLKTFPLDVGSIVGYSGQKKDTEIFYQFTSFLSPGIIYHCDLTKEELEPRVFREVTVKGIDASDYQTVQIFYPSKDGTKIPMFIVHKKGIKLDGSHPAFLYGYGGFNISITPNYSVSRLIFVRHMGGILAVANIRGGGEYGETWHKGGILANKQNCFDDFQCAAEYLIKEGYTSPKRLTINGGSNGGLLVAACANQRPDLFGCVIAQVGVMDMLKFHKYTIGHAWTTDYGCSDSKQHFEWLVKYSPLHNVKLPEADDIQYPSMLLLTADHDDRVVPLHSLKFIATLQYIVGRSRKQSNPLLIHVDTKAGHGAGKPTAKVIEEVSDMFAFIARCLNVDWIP

[2] = Permeability of the compound after 2.45 hrs by PAMPA; format: ADME; details: read-out: permeability
[3] = biological target: T2, Cholinesterase (Homo sapiens, UniProt P06276); assay: Inhibition of human BuChE using butyrylthiocholine iodide as substrate measured for 1 min by Ellman's method
[4] = species on record: Homo sapiens; assay: Selectivity index, ratio of IC50 for human BuChE to IC50 for human AChE
[5] = biological target: Acetylcholinesterase (Homo sapiens, UniProt P22303)
Description: Inhibition of human AChE using acetylthiocholine iodide as substrate measured for 1 min by Ellman's method

[6] = biological target: T2, Cholinesterase; assay: Mixed-type inhibition of human BuChE assessed as enzyme-substrate-inhibitor complex using butyrylthiocholine iodide as substrate by Lineweaver-Burk plot analysis
[7] = biological target: T2, Cholinesterase; assay: Mixed-type inhibition of human BuChE assessed as enzyme-inhibitor complex using butyrylthiocholine iodide as substrate by Lineweaver-Burk plot analysis
[8] = biological target: Glycogen synthase kinase-3 beta (Homo sapiens) (UniProt P49841); assay: Inhibition of GSK3B (unknown origin) at 10 uM relative to control
Glycogen synthase kinase-3 beta (Homo sapiens), sequence (P49841 whole entry, looked up): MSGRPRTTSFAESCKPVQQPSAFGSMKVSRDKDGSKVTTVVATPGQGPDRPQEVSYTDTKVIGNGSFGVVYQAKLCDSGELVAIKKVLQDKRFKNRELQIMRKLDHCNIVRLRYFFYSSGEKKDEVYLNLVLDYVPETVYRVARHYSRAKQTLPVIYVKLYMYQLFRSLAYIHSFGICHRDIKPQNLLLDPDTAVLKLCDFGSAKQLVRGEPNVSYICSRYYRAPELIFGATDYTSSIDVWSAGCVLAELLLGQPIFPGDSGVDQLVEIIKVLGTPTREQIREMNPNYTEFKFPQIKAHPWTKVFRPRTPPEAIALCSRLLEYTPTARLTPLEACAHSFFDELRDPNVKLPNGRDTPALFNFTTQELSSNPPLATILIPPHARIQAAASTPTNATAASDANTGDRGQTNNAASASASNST

T2 sequence (P06276 whole entry): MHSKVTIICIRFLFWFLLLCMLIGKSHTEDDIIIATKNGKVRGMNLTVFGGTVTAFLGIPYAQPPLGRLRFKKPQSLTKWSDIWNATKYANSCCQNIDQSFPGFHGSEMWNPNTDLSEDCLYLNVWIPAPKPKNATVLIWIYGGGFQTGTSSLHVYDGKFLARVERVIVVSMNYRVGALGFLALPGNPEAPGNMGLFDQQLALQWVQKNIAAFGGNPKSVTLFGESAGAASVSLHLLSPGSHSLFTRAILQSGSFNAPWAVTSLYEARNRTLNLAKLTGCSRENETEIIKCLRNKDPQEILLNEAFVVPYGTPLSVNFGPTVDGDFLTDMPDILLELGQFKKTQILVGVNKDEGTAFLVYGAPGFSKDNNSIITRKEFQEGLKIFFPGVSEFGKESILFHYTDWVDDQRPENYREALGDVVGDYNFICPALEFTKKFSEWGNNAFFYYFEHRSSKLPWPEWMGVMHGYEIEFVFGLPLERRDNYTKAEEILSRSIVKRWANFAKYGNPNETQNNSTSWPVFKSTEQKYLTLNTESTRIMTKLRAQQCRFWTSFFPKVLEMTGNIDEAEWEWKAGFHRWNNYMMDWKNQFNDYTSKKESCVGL
Acetylcholinesterase, sequence (P22303 whole entry): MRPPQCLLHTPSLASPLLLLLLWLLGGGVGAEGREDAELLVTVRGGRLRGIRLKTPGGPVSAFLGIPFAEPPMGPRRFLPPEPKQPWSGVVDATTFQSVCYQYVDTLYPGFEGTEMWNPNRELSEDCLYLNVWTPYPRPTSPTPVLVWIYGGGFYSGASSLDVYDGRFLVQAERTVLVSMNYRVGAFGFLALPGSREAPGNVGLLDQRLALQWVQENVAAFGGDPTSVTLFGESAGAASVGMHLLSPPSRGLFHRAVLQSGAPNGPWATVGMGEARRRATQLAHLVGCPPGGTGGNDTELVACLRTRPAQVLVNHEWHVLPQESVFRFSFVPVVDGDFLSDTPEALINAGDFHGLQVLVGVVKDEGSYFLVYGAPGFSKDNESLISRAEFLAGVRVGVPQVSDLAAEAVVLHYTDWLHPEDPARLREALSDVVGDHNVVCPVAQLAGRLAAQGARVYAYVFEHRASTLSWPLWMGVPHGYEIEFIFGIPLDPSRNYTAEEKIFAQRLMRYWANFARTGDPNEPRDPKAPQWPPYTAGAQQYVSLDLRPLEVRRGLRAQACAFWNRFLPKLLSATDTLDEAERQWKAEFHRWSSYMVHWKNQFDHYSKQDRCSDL

SMILES	IC50 [1] [µM]	Papp at 2.45 h [2] [×10⁻⁶ cm/s]	IC50 [3] [µM]	Ratio IC50 [4]	IC50 [5] [µM]	Ki [6] [µM]	Ki [7] [µM]	inhibition [8] [%]
COc1ccc2c3c1O[C@H]1C[C@@H](O)C=C[C@@]31CCN(C)C2 [GALANTAMINE]	> 200	–	–	–	–	–	–	–
COc1ccc2cc3[n+](cc2c1OC)CCc1cc2c(cc1-3)OCO2 [BERBERINE]	–	0.1	–	–	–	–	–	–
COc1ccc2cc3n(c(=O)c2c1OC)CCc1cc2c(cc1-3)OCO2 [OXYBERBERINE]	> 200	–	68	1.1	> 100	–	–	–
CCN(CC)Cc1cc2cc(c1O)Oc1ccc(cc1)C[C@H]1c3cc(c(OC)cc3CCN1C)Oc1c(OC)c(OC)cc3c1[C@@H](C2)N(C)CC3	–	–	> 100	–	68	–	–	–
COc1cc2c3cc1Oc1c(O)c(OC)cc4c1[C@H](Cc1ccc(cc1)Oc1cc(ccc1O)C[C@H]3N(C)CC2)N(C)CC4	189	1.8	0.8	0.008	> 100	39.7	6.41	10
COc1cc2c(cc1Oc1c3c(cc(OC)c1OC)CCN(C)C3)C(Cc1ccc(O)cc1)N(C)CC2 (stereo not given)	> 200	–	68	0.2	> 100	–	–	–
COc1cc2c(cc1OC)-c1cc3ccc(OC)c(OC)c3c[n+]1CC2 [PALMITINE]	> 200	–	> 100	86	–	–	–	–
COc1cc2c3cc1Oc1c(OC)c(OC)cc4c1[C@@H](Cc1ccc(O)c(c1)Oc1ccc(cc1)C[C@@H]3N(C)CC2)N(C)CC4 [BERBAMINE]	> 200	–	> 100	0.4	> 100	–	–	–
COc1cc2c(cc1O)C(Cc1ccc(O)c(Oc3cc(CC4c5cc(O)c(OC)cc5CCN4C)ccc3OC)c1)N(C)CC2 (stereo not given)	–	–	6.9	0.1	66	–	–	–
COc1cc2c3cc1Oc1c(O)c(OC)cc4c1[C@@H](Cc1ccc(O)c(c1)Oc1ccc(cc1)C[C@@H]3N(C)CC2)N(C)CC4 [OBAMEGINE]	> 200	–	> 100	1.5	97	–	–	–
C/C=C1\[C@H]2C=C(C)C[C@]1(N)c1ccc(=O)[nH]c1C2 [HUPERZINE A]	–	–	> 100	–	–	–	–	–
